What was measured:
Type in all cases: in vivo
[1] = tested on: green peach aphid (Myzus persicae); test: Example G: Myzus persicae test, hydroponic treatment (MYZUPE sys.); settings: concentration 20 ppm, pea plant
Description: Myzus persicae Test, Hydroponic Treatment (MYZUPE sys.)
Solvent: 7 parts by weight of dimethylformamide
Emulsifier: 2 parts by weight of alkylaryl polyglycol ether
To produce a suitable preparation of active compound, 1 part by weight of active compound is mixed with the stated amounts of solvent and emulsifier, and the concentrate is diluted with water to the desired concentration.
The preparation of active compound is mixed with water. The stated concentration refers to the amount of active compound per volume unit of water (mg/l=ppm). The treated water is filled into vessels containing a pea plant (Pisum sativum) which is then infested with the green peach aphid (Myzus persicae).
After the desired period of time, the kill in percent is determined. 100% means that all aphids have been killed; 0% means that none of the aphids have been killed.

[2] = tested on: Setaria viridis; test: Example B: Herbicidal post-emergence action; settings: application rate 320 g/ha, rated after about 3 weeks
Description: (§1) Herbicidal Post-Emergence Action
(§2) Seeds of monocotylos and dicotylos weed and crop plants are placed in sandy lawn in wood fibre pots, covered with soil and cultivated in a greenhouse under good growth conditions. Two to three weeks after sowing, the test plants are treated at the one-leaf stage. The test compounds, formulated as wettable powders (WP) or as emulsion concentrates (EC), are then, as an aqueous suspension with a water application rate of 800 l/ha (converted), with 0.2% of wetting agent added, sprayed onto the green parts of the plants. After the test plants have been kept in the greenhouse under optimum growth conditions for about 3 weeks, the effect of the preparations is rated visually in comparison to untreated controls (herbicidal effect in percent (%): 100% effect=the plants have died, 0% effect=like control plants).

[3] = tested on: Lolium multiflorum; test: Example B: Herbicidal post-emergence action; settings: application rate 320 g/ha, rated after about 3 weeks
Description: as §1, §2

Row | SMILES | efficacy (kill of aphids) [1] | herbicidal effect (efficacy), post-emergence [2] | herbicidal effect (efficacy), post-emergence [3]
1 | COC1CCC2(CC1)NC(=O)C(c1c(C)cc(C3CC3)cc1C)=C2O (stereo not drawn) [Example I-1-a-4] | ≥ 90% |  | 
2 | CCOC(=O)OC1=C(c2c(C)cc(C3CC3)cc2CC)C(=O)NC12CCC(OC)CC2 (stereo not drawn) [Example I-1-c-1] |  | ≥ 90% | ≥ 90%

Reference: US8541617B2, “Cycloalkylphenyl substituted cyclic ketoenols” (Bayer Cropscience AG, priority 2006, dated 2013)
